Marks after values point to notes of the source that are not given here.
Key:
[1] = Antioxidant activity measurement (DPPH); assay type: biochemical; settings: DPPH % after 60 minutes; for DPPH for moiety alone [%] ± SD, n = 3: free moiety, lower = more antioxidant
[2] = Viscosity and pH of formulations after steam sterilization; assay type: physicochemical; settings: formulation after steam sterilization
Experimental: The gel is steam sterilized 10 minutes at 121° C. with an entire cycle of 35 minutes. For the viscosity, gels are measured with the rheological program presented before.
The target characteristics are a viscosity after heat sterilization of around 1000 [mPas], neutrality and isotonicity to plasma (around 280 [mOsmol]) in common with state of the art commercial formulations such as Ostenil©.

New-Zealand rabbits = assay: Intra-articular biocompatibility test in rabbit; assay type: in vivo
Experimental: Twelve male New-Zealand rabbits are kept in individual cages 2 weeks after reception before injection. The day of injection, they are anesthetized with Ketamin©/Domitor©, their posterior articulations shaved and disinfected with Vetedine© soap and solution. 200 ul of the selected formulations are injected into the articulations. The rabbit is then revived with Atipam©. The formulations are randomized for rabbits as well as for articulations and injected blindly.
Twice a week, a clinical examination is performed comprising the following points. For the general state; vigilance (at distance from the cage: normal, diminished, sleepy, enhanced), movements (at distance from the cage: normal, diminished), limb ledge (at distance from the cage: yes, no), limp (at distance from the cage: yes, no), hair state: (smooth and shiny, dull, bristling, dirty zones, hairless zones), wound: (yes, no), abnormal secretion: (yes, no), mucosal color: (pink, blade, congested, cyanosed). For the injected joints; swelling (from 0 to 3, 3 being strongest swelling), flow at the injection site (0-3), heat (0-3), palpation pain (from 0 to 3), mobilization pain (0-3), redness (0-3), hematoma (0-3). An echography is also performed under anesthesia comprising the following […] (external lateral, internal lateral and proximal) according to a protocol published in the literature and provides information about the presence of liquid, osteophytes and any severe cartilage erosion. After one month observation, the rabbits are sacrificed with intra-muscular injection of Ketamin©/Domitor© and intra-cardiac Dolethal©. The articulations are dissected and photographed before and after china ink embodiment to assess the state of the rotula, condyl, tibia and trochlea cartilage by a visual analogue scale (VAS) expressed in percentage of the structure degraded and by osteophytis scoring (OS) giving the presence or absence of osteophytes (0: absent, 1: present).
The femoral and tibial parts are fixed in 10% formalin solution and decalcified with Kristenson solution from Chimie-Plus Laboratoire (Denice, France) during several weeks. Samples are cut in two parasagittal sections for medial femoral and tibial condyles (left and right) and then paraffin embedded and sectioned into 4 μm thick slices. Sections were stained with Safranin O-fast green for cartilage. Synovial membranes were fixed in 10% formalin solution, cut in two or three parallel sections, paraffin embedded and sectioned into 4 μm thick slices. Each paraffin block was sectioned in three slides [one stained with hematoxylin, eosin and saffron (HES), and two stained with hematoxylin and eosin (HE)]. Histological features were evaluated in a blinded fashion except for control rabbits. Histological lesions were evaluated and scored according the OARSI histopathology initiative; -recommendations for histological assessments of osteoarthritis in the rabbit (Osteoarthritis and cartilage 18 (2010) S53-S65). Microscopic scoring of cartilage alterations, two sections per condyle were evaluated allowing a semi-quantitative grading. Several parameters were evaluated: Safranin O-fast green staining, structure, chondrocytes density, cluster formation. For microscopic scoring of synovial alterations, three sections per synovial membrane were evaluated, allowing semi-quantitative grading. Several parameters were evaluated: synoviocytes proliferation, synoviocytes hypertrophy, granulocytic infiltration, lymphoplasmacytic infiltration, lymphoplasmacytic aggregates follicles, villous hyperplasia, proliferation of fibroblasts/fibrocytes, proliferation of blood vessels, cartilage/bone detritus presence and hemosiderosis.
The above mentioned formulations were tested in term of intra-articular biocompatibility in the rabbit model; Conjugated HA linked to 4AR (n=4), unconjugated HA mixed with 4AR (n=4), 4AR (n=4) and as controls; physiological serum (n=2), untreated (n=2) and Ostenil© (n=4).

[3] = reference [22]; cited from earlier work
[4] = Viscosity stability in an oxidative environment (Weissberger's oxidative system, CuCl2 + ascorbic acid); settings: gel 1 %
[5] = Water solubility of the moieties; assay type: physicochemical; settings: free moiety
[6] = HA conjugate (native HA), for 4AR first value, 14 % grafting

In the case of Nc1ccc(O)cc1O [4AR, 4-aminoresorcinol], the “DPPH [%] ± SD, n = 3” value ([1]; 4AR conjugate with 57 % grafting (second value of the cell)) is reported as 37%, the “DPPH [%] ± SD, n = 3” value [1, 6] is reported as 71% and the “DPPH for moiety alone [%] ± SD, n = 3” value [1] is reported as 28%. For the same compound, the pH [2] was 7.25, the “Tibia OS” value (New-Zealand rabbits; 0 absent, 1 present, one month) was 0% and the “Trochlea OS” value (New-Zealand rabbits; 0 absent, 1 present, one month) was 0%. The “Rotula OS” value (New-Zealand rabbits; 0 absent, 1 small osteophyte present, one month) was 0%, the “Condyl OS, ext” value (New-Zealand rabbits; external, 0 absent, 1 present, one month) was 0/0% and the “Condyl VAS score, ext” value (New-Zealand rabbits; external, one month) was 0/0%. For the same compound, the “Tibia VAS score, ext” value (New-Zealand rabbits; external, one month) was 0***/0*** %, the “Condyl OS, int” value (New-Zealand rabbits; internal, 0 absent, 1 present, one month) was 0/0% and the “Condyl VAS score, int” value (New-Zealand rabbits; internal, one month) was 0/0%. For the same compound, the “Tibia VAS score, int” value (New-Zealand rabbits; internal, one month) was 0***/0*** %, the “Meniscus lesion (int/ext)” value (New-Zealand rabbits; one month) was 0 and the “Synvovial membrane Fibrosis” value (New-Zealand rabbits; one month) was 0. The “Synvovial membrane Inflamation” value (New-Zealand rabbits; one month) was 0, the “Trochlea VAS score” value (New-Zealand rabbits; one month) was 0-10* % and the “Rotula VAS score” value (New-Zealand rabbits; percentage of structure degraded, one month after 200 ul intra-articular) was 0%. The “intra-articular biocompatibility (in words)” value (New-Zealand rabbits; single injection, one month evaluation) was “no sign of non-biocompatibility”, the “cytotoxicity (in words)” value [3] was “potent cytotoxic agent” and the gain of viscosity ([4]; during the 36 minutes of measurement, Weissberger oxidative system, n=1) was 40%.
With CCOC(=O)[C@@H](N)CS [EECyst, ethylester cysteine] the “DPPH [%] ± SD, n = 3” value [1, 6] was 41% and the “DPPH for moiety alone [%] ± SD, n = 3” value [1] was 6%.
With Nc1ccc(C(=O)O)c(O)c1 [4ASA, 4-aminosalicylic acid] the “DPPH [%] ± SD, n = 3” value [1, 6] was 96%, the “DPPH for moiety alone [%] ± SD, n = 3” value [1] was 27% and the “water solubility (in words)” value [5] was “low water solubility”.
With NCCc1ccc(O)cc1 [Tyr, tyramin] the “DPPH [%] ± SD, n = 3” value [1, 6] was 92%, the “DPPH for moiety alone [%] ± SD, n = 3” value [1] was 85% and the “viscosity behaviour / degradation in oxidative environment (in words)” value ([4]; CuCl2 + ascorbic acid) was “more degraded than HA itself”.
With Nc1ccccc1 [Aniline, aniline] the “DPPH [%] ± SD, n = 3” value [1, 6] was 95%, the “DPPH for moiety alone [%] ± SD, n = 3” value [1] was 36% and the “water solubility (in words)” value [5] was “high water solubility”.
For Nc1ccc(O)c(C(=O)O)c1 [5ASA, 5-aminosalicylic acid], the “DPPH [%] ± SD, n = 3” value [1, 6] was 67% and the “DPPH for moiety alone [%] ± SD, n = 3” value [1] was 34%.
For Cc1cc(=O)oc2cc(N)ccc12 [AMC], the “DPPH [%] ± SD, n = 3” value [1, 6] was 61%, the “DPPH for moiety alone [%] ± SD, n = 3” value [1] was 87% and the “water solubility (in words)” value [5] was “solubility is low”.
